This passage reports Ki results from ChEMBL document CHEMBL4673400, “Potential of Cyclin-Dependent Kinase Inhibitors as Cancer Therapy” (ACS Med Chem Lett, 2021).

Chain of CDK6/cyclin D1 (P24385 whole entry): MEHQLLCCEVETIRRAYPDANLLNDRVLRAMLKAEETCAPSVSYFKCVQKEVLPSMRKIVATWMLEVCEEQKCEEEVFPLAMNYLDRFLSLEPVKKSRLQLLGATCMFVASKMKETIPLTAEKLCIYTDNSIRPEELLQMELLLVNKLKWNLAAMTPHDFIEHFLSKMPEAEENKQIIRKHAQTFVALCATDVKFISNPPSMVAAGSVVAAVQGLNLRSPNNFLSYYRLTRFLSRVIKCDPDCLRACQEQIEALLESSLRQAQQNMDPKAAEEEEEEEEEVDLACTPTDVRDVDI
Chain of CDK6/cyclin D1 (Q00534 whole entry): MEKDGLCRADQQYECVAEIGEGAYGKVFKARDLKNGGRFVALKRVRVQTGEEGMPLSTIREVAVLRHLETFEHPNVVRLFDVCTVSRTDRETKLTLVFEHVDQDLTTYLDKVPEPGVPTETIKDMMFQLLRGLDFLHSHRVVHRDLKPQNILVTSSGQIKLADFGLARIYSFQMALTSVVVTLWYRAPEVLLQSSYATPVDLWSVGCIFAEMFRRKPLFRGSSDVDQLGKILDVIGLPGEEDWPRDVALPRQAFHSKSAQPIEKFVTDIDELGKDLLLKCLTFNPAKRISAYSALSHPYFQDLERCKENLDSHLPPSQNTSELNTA

One assay addresses CDK6/cyclin D1 (Homo sapiens, UniProt Q00534).
In general, Ki refers to a measure of affinity in units of concentration, obtained from inhibition or displacement. Lower therefore signals tighter binding. On to `C[C@@]1(O)CCC[C@H]1n1c(=O)ccc2cnc(NC3CCN(S(=O)(=O)CC4CC4)CC3)nc21`, for which the Ki amounted to 0.88 nM.

The next assay has as its target Cyclin-dependent kinase 2/cyclin E1 (Homo sapiens, UniProt P24941).
Description: Inhibition of recombinant full length wild-type phosphorylated CDK2/Cyclin E1 (unknown origin) expressed in baculovirus expression system assessed as reduction in production of ADP using 5-FAM-QSPKKG-CONH2 peptide as substrate preincubated with enzyme for 15 mins followed by further incubation with ATP for 45 mins by fluorescence-based microfluidic mobility shift assay
Regarding `CS(=O)(=O)N1CCC(Nc2ncc3cc(CC(N)=O)c(=O)n([C@@H]4CCC[C@@H](O)C4)c3n2)CC1`, affinity was put at a Ki of 1.73 nM.
Same read-out and setting: the figure for `C[C@]1(O)CCC[C@@H]1n1c(=O)ccc2cnc(NC3CCN(S(=O)(=O)c4nccs4)CC3)nc21` is 7.32 nM.
The same measure, in the same setting: for `C[C@@H]1[C@H](O)CC[C@H]1n1c(=O)ccc2cnc(NC3CCN(S(C)(=O)=O)CC3)nc21` the value was 0.12 nM; for `CNS(=O)(=O)N1CCC(Nc2ncc3ccc(=O)n([C@@H]4CCC[C@@]4(C)O)c3n2)CC1`, 0.28 nM; for `C[C@@]1(O)CCC[C@H]1n1c(=O)c(CC#N)cc2cnc(NC3CCN(S(C)(=O)=O)CC3)nc21`, 0.16 nM.
On the same count and under the same terms, for `CNS(=O)(=O)N1CCC(Nc2ncc3cc(Cl)c(=O)n([C@@H]4CCC[C@@]4(C)O)c3n2)CC1` the value was 0.2 nM.
`C[C@@]1(O)CCC[C@H]1n1c(=O)ccc2cnc(NC3CCN(S(=O)(=O)CC4CC4)CC3)nc21` registered a Ki of 0.25 nM.
Same read-out and setting: the figure for `C[C@@]1(O)CCC[C@H]1n1c(=O)ccc2cnc(NC3CCN(S(N)(=O)=O)CC3)nc21` is 0.1 nM.
